Test system: 317291-083-R-J1-PDC complex spheroids, viability
Assay: Anticancer human tumor 317291-083-R-J1-PDC patient-derived soft tissue sarcoma cell line growth inhibition [GQUAD]
Conditions: for IC50: curve of first compound; for viability, T/C: stronger effect = lower value
Method in brief: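 Tumor cells were grown as complex spheroids with HUVEC endothelial cells and mesenchymal stem cells as stroma. G-quadruplex stabilizers were combined with targeted agents over half-log dilutions from near the clinical Cmax, or from 10 microM.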

[1] = second compound 0.0316 µM, first compound 0.0316 µM
[2] = second compound 0.0316 µM, first compound 0.316 µM
[3] = second compound 0.1 µM, first compound 0.0316 µM
[4] = second compound 0.1 µM, first compound 0.316 µM
[5] = second compound 0.316 µM, first compound 0.0316 µM
[6] = second compound 0.316 µM, first compound 0.316 µM
[7] = second compound 1 µM, first compound 0.0316 µM
[8] = second compound 1 µM, first compound 0.316 µM
[9] = second compound 3.16 µM, first compound 0.0316 µM
[10] = second compound 3.16 µM, first compound 0.316 µM
[11] = second compound 10 µM, first compound 0.0316 µM
[12] = second compound 10 µM, first compound 0.316 µM
[13] = second compound 0.0316 µM, first compound 0.1 µM
[14] = second compound 0.0316 µM, first compound 1 µM
[15] = second compound 0.0316 µM, first compound 3.16 µM
[16] = second compound 0.0316 µM, first compound 10 µM
[17] = second compound 0.1 µM, first compound 0.1 µM
[18] = second compound 0.1 µM, first compound 1 µM
[19] = second compound 0.1 µM, first compound 3.16 µM
[20] = second compound 0.1 µM, first compound 10 µM
[21] = second compound 0.316 µM, first compound 0.1 µM
[22] = second compound 0.316 µM, first compound 1 µM
[23] = second compound 0.316 µM, first compound 3.16 µM
[24] = second compound 0.316 µM, first compound 10 µM
[25] = second compound 1 µM, first compound 0.1 µM
[26] = second compound 1 µM, first compound 1 µM
[27] = second compound 1 µM, first compound 3.16 µM
[28] = second compound 1 µM, first compound 10 µM
[29] = second compound 3.16 µM, first compound 0.1 µM
[30] = second compound 3.16 µM, first compound 1 µM
[31] = second compound 3.16 µM, first compound 3.16 µM
[32] = second compound 3.16 µM, first compound 10 µM
[33] = second compound 10 µM, first compound 0.1 µM
[34] = second compound 10 µM, first compound 1 µM
[35] = second compound 10 µM, first compound 3.16 µM
[36] = second compound 10 µM, first compound 10 µM
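Note: spheroids exposed to compounds for one week before readout.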
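Throughout, for viability, T/C: percent viability relative to DMSO vehicle wells taken as 100%.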

CCc1c2c(nc3ccc(O)cc13)-c1cc3c(c(=O)n1C2)COC(=O)[C@]3(O)CC + Cc1cnc(CNC(=O)c2c(=O)c3ccc(N4CCCN(C)CC4)nc3n3c2sc2ccccc23)cn1
IC50 (second compound 0.0316 µM): < 0.999 nM | IC50 (second compound 0.1 µM): < 0.999 nM | IC50 (second compound 0.316 µM): < 0.999 nM | IC50 (second compound 1 µM): < 0.999 nM | IC50 (second compound 3.16 µM): < 0.999 nM | IC50 (second compound 10 µM): < 0.999 nM | viability, T/C (second compound 0.0316 µM, first compound 0.000999 µM): 39.3% | viability, T/C (second compound 0.0316 µM, first compound 0.00316 µM): 18% | viability, T/C (second compound 0.0316 µM, first compound 0.00999 µM): 10.7% | viability, T/C [1]: 7.46% | viability, T/C (second compound 0.0316 µM, first compound 0.0999 µM): 9.54% | viability, T/C [2]: 5.6% | viability, T/C (second compound 0.1 µM, first compound 0.000999 µM): 33.9% | viability, T/C (second compound 0.1 µM, first compound 0.00316 µM): 16% | viability, T/C (second compound 0.1 µM, first compound 0.00999 µM): 11.3% | viability, T/C [3]: 13.6% | viability, T/C (second compound 0.1 µM, first compound 0.0999 µM): 5.29% | viability, T/C [4]: 3.08% | viability, T/C (second compound 0.316 µM, first compound 0.000999 µM): 20.6% | viability, T/C (second compound 0.316 µM, first compound 0.00316 µM): 21.5% | viability, T/C (second compound 0.316 µM, first compound 0.00999 µM): 15.5% | viability, T/C [5]: 9.82% | viability, T/C (second compound 0.316 µM, first compound 0.0999 µM): 7.3% | viability, T/C [6]: 2.31% | viability, T/C (second compound 1 µM, first compound 0.000999 µM): 21.9% | viability, T/C (second compound 1 µM, first compound 0.00316 µM): 25.9% | viability, T/C (second compound 1 µM, first compound 0.00999 µM): 11.1% | viability, T/C [7]: 9.26% | viability, T/C (second compound 1 µM, first compound 0.0999 µM): 12.2% | viability, T/C [8]: 1.09% | viability, T/C (second compound 3.16 µM, first compound 0.000999 µM): 26.1% | viability, T/C (second compound 3.16 µM, first compound 0.00316 µM): 14.9% | viability, T/C (second compound 3.16 µM, first compound 0.00999 µM): 9.17% | viability, T/C [9]: 2.26% | viability, T/C (second compound 3.16 µM, first compound 0.0999 µM): 2.54% | viability, T/C [10]: 0.17% | viability, T/C (second compound 10 µM, first compound 0.000999 µM): 15.2% | viability, T/C (second compound 10 µM, first compound 0.00316 µM): 7.77% | viability, T/C (second compound 10 µM, first compound 0.00999 µM): 8.64% | viability, T/C [11]: 8.52% | viability, T/C (second compound 10 µM, first compound 0.0999 µM): 6.98% | viability, T/C [12]: 0.18%

COc1ncnc(C2CC2)c1-c1ncc2cnn(Cc3ccc(-c4nc(C(F)(F)F)cn4C(C)C)cc3)c2n1 + CN(C)c1ccc(Nc2c3ccc(NC(=O)CCN4CCCC4)cc3nc3cc(NC(=O)CCN4CCCC4)ccc23)cc1
IC50 (second compound 0.0316 µM): > 10000 nM | IC50 (second compound 0.1 µM): > 10000 nM | IC50 (second compound 0.316 µM): < 31.6 nM | IC50 (second compound 1 µM): < 31.6 nM | IC50 (second compound 3.16 µM): < 31.6 nM | IC50 (second compound 10 µM): < 31.6 nM | viability, T/C [1]: 88.5% | viability, T/C [13]: 77.1% | viability, T/C [2]: 69% | viability, T/C [14]: 70.3% | viability, T/C [15]: 64.3% | viability, T/C [16]: 59.9% | viability, T/C [3]: 79.9% | viability, T/C [17]: 61.4% | viability, T/C [4]: 65.9% | viability, T/C [18]: 61.4% | viability, T/C [19]: 51.6% | viability, T/C [20]: 60.2% | viability, T/C [5]: 48.2% | viability, T/C [21]: 44.2% | viability, T/C [6]: 41.9% | viability, T/C [22]: 37.4% | viability, T/C [23]: 37.4% | viability, T/C [24]: 36.1% | viability, T/C [7]: 32.4% | viability, T/C [25]: 50.2% | viability, T/C [8]: 35.7% | viability, T/C [26]: 16.5% | viability, T/C [27]: 26.6% | viability, T/C [28]: 17.3% | viability, T/C [9]: 33.4% | viability, T/C [29]: 2.38% | viability, T/C [10]: 3.48% | viability, T/C [30]: 1.13% | viability, T/C [31]: 2.41% | viability, T/C [32]: 1.37% | viability, T/C [11]: 0.61% | viability, T/C [33]: 0.24% | viability, T/C [12]: 0.23% | viability, T/C [34]: 0.23% | viability, T/C [35]: 0.28% | viability, T/C [36]: 0.22%

CC(=O)O[C@H]1C(=O)[C@@]2(C)[C@H]([C@H](OC(=O)c3ccccc3)[C@]3(O)C[C@H](OC(=O)[C@H](O)[C@@H](NC(=O)c4ccccc4)c4ccccc4)C(C)=C1C3(C)C)[C@]1(OC(C)=O)CO[C@@H]1C[C@@H]2O + CN(C)c1ccc(Nc2c3ccc(NC(=O)CCN4CCCC4)cc3nc3cc(NC(=O)CCN4CCCC4)ccc23)cc1
IC50 (second compound 0.0316 µM): < 31.6 nM | IC50 (second compound 0.1 µM): < 31.6 nM | IC50 (second compound 0.316 µM): < 31.6 nM | IC50 (second compound 1 µM): < 31.6 nM | IC50 (second compound 3.16 µM): < 31.6 nM | IC50 (second compound 10 µM): < 31.6 nM | viability, T/C [1]: 46.5% | viability, T/C [13]: 17% | viability, T/C [2]: 12.4% | viability, T/C [14]: 14.7% | viability, T/C [15]: 11.4% | viability, T/C [16]: 12.4% | viability, T/C [3]: 39.5% | viability, T/C [17]: 13.6% | viability, T/C [4]: 12.5% | viability, T/C [18]: 12.2% | viability, T/C [19]: 10.4% | viability, T/C [20]: 10.6% | viability, T/C [5]: 25.9% | viability, T/C [21]: 14% | viability, T/C [6]: 9.98% | viability, T/C [22]: 8.69% | viability, T/C [23]: 10.2% | viability, T/C [24]: 9.42% | viability, T/C [7]: 21.7% | viability, T/C [25]: 6.55% | viability, T/C [8]: 5.24% | viability, T/C [26]: 7.99% | viability, T/C [27]: 6.09% | viability, T/C [28]: 6.28% | viability, T/C [9]: 9.14% | viability, T/C [29]: 0.56% | viability, T/C [10]: 0.37% | viability, T/C [30]: 0.6% | viability, T/C [31]: 1.62% | viability, T/C [32]: 0.92% | viability, T/C [11]: 0.91% | viability, T/C [33]: 0.27% | viability, T/C [12]: 0.18% | viability, T/C [34]: 0.29% | viability, T/C [35]: 0.25% | viability, T/C [36]: 0.23%

CC1COCCN1c1cc(C2(S(C)(=N)=O)CC2)nc(-c2ccnc3[nH]ccc23)n1 (stereo not drawn) + Cc1cnc(CNC(=O)c2c(=O)c3ccc(N4CCCN(C)CC4)nc3n3c2sc2ccccc23)cn1
IC50 (second compound 0.0316 µM): 1280 nM | IC50 (second compound 0.1 µM): 493 nM | IC50 (second compound 0.316 µM): < 31.6 nM | IC50 (second compound 1 µM): < 31.6 nM | IC50 (second compound 3.16 µM): < 31.6 nM | IC50 (second compound 10 µM): < 31.6 nM | viability, T/C [1]: 97.2% | viability, T/C [13]: 99.6% | viability, T/C [2]: 69.2% | viability, T/C [14]: 67.6% | viability, T/C [15]: 19% | viability, T/C [16]: 10.4% | viability, T/C [3]: 66.2% | viability, T/C [17]: 111% | viability, T/C [4]: 64.6% | viability, T/C [18]: 34.4% | viability, T/C [19]: 22.5% | viability, T/C [20]: 23.2% | viability, T/C [5]: 44% | viability, T/C [21]: 42.2% | viability, T/C [6]: 42.8% | viability, T/C [22]: 35% | viability, T/C [23]: 12.2% | viability, T/C [24]: 18.2% | viability, T/C [7]: 34.8% | viability, T/C [25]: 60.1% | viability, T/C [8]: 32.2% | viability, T/C [26]: 20.8% | viability, T/C [27]: 25.3% | viability, T/C [28]: 14.8% | viability, T/C [9]: 16.2% | viability, T/C [29]: 22.4% | viability, T/C [10]: 18% | viability, T/C [30]: 26.7% | viability, T/C [31]: 15.4% | viability, T/C [32]: 14.6% | viability, T/C [11]: 39.2% | viability, T/C [33]: 19.8% | viability, T/C [12]: 46.7% | viability, T/C [34]: 9.84% | viability, T/C [35]: 20.8% | viability, T/C [36]: 9.87%

Source: PubChem BioAssay AID2060497 (Molecular Pharmacology Branch, DTP, NCI, 2025)
